Measured values reported in ChEMBL document CHEMBL1124513, “Synthesis and antitumor activity of ribavirin imidates. A new facile synthesis of ribavirin amidine (1-beta-D-ribofuranosyl-1,2,4-triazole-3-carboxamidine hydrochloride)” (J Med Chem, 1989).
“And” between values parts separate entries of the source, which are not always exact repeats. Equal values may be shown once.

What was measured:
[1] = tested on: L1210; experiment: Residual leukemic cell populations after last treatment in L1210 leukemic mice treated with 1333 mg/kg of compound (qd, day 1); assay type: functional, Mus musculus
[2] = tested on: L1210; experiment: Residual leukemic cell populations after last treatment in L1210 leukemic mice treated with 2222 mg/kg of compound (qd, day 1); Toxic; assay type: toxicity, organism-based; design: dose 2222 mg/kg; settings: mouse, in vivo
[3] = tested on: L1210; experiment: Residual leukemic cell populations after last treatment in L1210 leukemic mice treated with 288 mg/kg of compound (qd, day 1); assay type: functional, Mus musculus
[4] = tested on: L1210; experiment: Residual leukemic cell populations after last treatment in L1210 leukemic mice treated with 288 mg/kg of compound (qd, day 1-7); assay type: functional, Mus musculus
[5] = tested on: L1210; experiment: Residual leukemic cell populations after last treatment in L1210 leukemic mice treated with 3704 mg/kg of compound (qd, day 1); Toxic; assay type: toxicity, organism-based; design: dose 3704 mg/kg; settings: mouse, in vivo
[6] = tested on: L1210; experiment: Residual leukemic cell populations after last treatment in L1210 leukemic mice treated with 400 mg/kg of compound (qd, day 1); assay type: functional, Mus musculus
[7] = tested on: L1210; experiment: Residual leukemic cell populations after last treatment in L1210 leukemic mice treated with 488 mg/kg of compound (qd, day 1-7); Toxic; assay type: toxicity, organism-based; design: dose 488 mg/kg; settings: mouse, in vivo
[8] = tested on: L1210; experiment: (§1) Residual leukemic cell populations after last treatment in L1210 leukemic mice treated with 800 mg/kg of compound (qd, day 1); assay type: functional, Mus musculus
[9] = tested on: L1210; experiment: as §1; assay type: functional, Mus musculus; remark: listed apart in the source
[10] = tested on: L1210; experiment: Residual leukemic cell populations after last treatment in L1210 leukemic mice treated with 800 mg/kg of compound (qd, day 1-7); Toxic; assay type: toxicity, organism-based; design: dose 800 mg/kg; settings: mouse, in vivo
[11] = tested on: Mus musculus; experiment: Compound was evaluated for leukemia related splenomegaly in DBA2 mice spleen weight was determined ~ 24 hour after the last treatment at schedule of administration = qd, day 1,3, 5, 7, 9, 11 at a dose 1333 mg/kg; Toxic; assay type: ADME, organism-based; design: dose 1333 mg/kg; settings: in vivo
[12] = tested on: Mus musculus; experiment: Post inoculation life span in L1210 leukemic mice treated with 1333 mg/kg of compound (qd, day 1); assay type: functional
[13] = tested on: Mus musculus; experiment: Post inoculation life span in L1210 leukemic mice treated with 2222 mg/kg of compound (qd, day 1); Tested in 6 mice; assay type: functional
[14] = tested on: Mus musculus; experiment: Post inoculation life span in L1210 leukemic mice treated with 288 mg/kg of compound (qd, day 1-7); Tested in 6 mice; assay type: functional
[15] = tested on: Mus musculus; experiment: Post inoculation life span in L1210 leukemic mice treated with 288 mg/kg of compound (qd, day 1); Tested in 6 mice; assay type: functional
[16] = tested on: Mus musculus; experiment: Post inoculation life span in L1210 leukemic mice treated with 3704 mg/kg of compound (qd, day 1); Tested in 6 mice; assay type: functional
[17] = tested on: Mus musculus; experiment: Post inoculation life span in L1210 leukemic mice treated with 480 mg/kg of compound (qd, day 1); Tested in 6 mice; assay type: functional
[18] = tested on: Mus musculus; experiment: Post inoculation life span in L1210 leukemic mice treated with 480 mg/kg of compound (qd, day 1-7); Tested in 6 mice; assay type: functional
[19] = tested on: Mus musculus; experiment: Post inoculation life span in L1210 leukemic mice treated with 800 mg/kg of compound (qd, day 1); Tested in 6 mice; assay type: functional
[20] = tested on: Mus musculus; experiment: Post inoculation life span in L1210 leukemic mice treated with 800 mg/kg of compound (qd, day 1-7); Tested in 6 mice; assay type: functional
[21] = tested on: Mus musculus; experiment: Compound was evaluated for leukemia related splenomegaly in DBA2 mice spleen weight was determined ~ 24 hour after the last treatment at schedule of administration = qd, day 1,3, 5, 7, 9, 11 at a dose 480 mg/kg; assay type: functional
[22] = tested on: Mus musculus; experiment: Compound was evaluated for leukemia related splenomegaly in DBA2 mice spleen weight was determined ~ 24 hour after the last treatment at schedule of administration = qd, day 1,3, 5, 7, 9, 11 at a dose 800 mg/kg; Toxic; assay type: ADME, organism-based; design: dose 800 mg/kg; settings: in vivo
[23] = tested on: L1210; experiment: Residual leukemic cell populations after last treatment in L1210 leukemic mice treated with 480 mg/kg of compound (bid, day 1,3,5,7); assay type: functional, Mus musculus
[24] = tested on: L1210; experiment: Residual leukemic cell populations after last treatment in L1210 leukemic mice treated with 480 mg/kg of compound (bid, day 1-7); Toxic; assay type: toxicity, organism-based; design: dose 480 mg/kg; settings: mouse, in vivo
[25] = tested on: L1210; experiment: (§2) Residual leukemic cell populations after last treatment in L1210 leukemic mice treated with 480 mg/kg of compound (qd, day 1); assay type: functional, Mus musculus
[26] = tested on: L1210; experiment: Residual leukemic cell populations after last treatment in L1210 leukemic mice treated with 480 mg/kg of compound (qd, day 1,3,5,7); assay type: functional, Mus musculus
[27] = tested on: L1210; experiment: Residual leukemic cell populations after last treatment in L1210 leukemic mice treated with 480 mg/kg of compound (qd, day 1,4,7); assay type: functional, Mus musculus
[28] = tested on: L1210; experiment: Residual leukemic cell populations after last treatment in L1210 leukemic mice treated with 480 mg/kg of compound (qid, day 1); Toxic; assay type: toxicity, organism-based; design: dose 480 mg/kg; settings: mouse, in vivo
[29] = tested on: L1210; experiment: Residual leukemic cell populations after last treatment in L1210 leukemic mice treated with 480 mg/kg of compound (tid, day 1); assay type: functional, Mus musculus
[30] = tested on: L1210; experiment: Residual leukemic cell populations after last treatment in L1210 leukemic mice treated with 480 mg/kg of compound (tid, day 1-7); Toxic; assay type: functional, organism-based; design: dose 480 mg/kg; settings: Mus musculus
[31] = tested on: L1210; experiment: Residual leukemic cell populations after last treatment in L1210 leukemic mice treated with 480 mg/kg of compound (bid, day 1); assay type: functional, Mus musculus
[32] = tested on: L1210; experiment: as §2; assay type: functional, Mus musculus; remark: listed apart in the source
[33] = tested on: L1210; experiment: Residual leukemic cell populations after last treatment in L1210 leukemic mice treated with 480 mg/kg of compound (tid, day 1,3,5,7); Toxic; assay type: toxicity, organism-based; design: dose 480 mg/kg; settings: mouse, in vivo
[34] = tested on: Mus musculus; experiment: Post inoculation life span in L1210 leukemic mice treated with 480 mg/kg of compound (bid, day 1); assay type: functional
[35] = tested on: Mus musculus; experiment: Post inoculation life span in L1210 leukemic mice treated with 480 mg/kg of compound (bid, day 1,3,5,7); assay type: functional
[36] = tested on: Mus musculus; experiment: Post inoculation life span in L1210 leukemic mice treated with 480 mg/kg of compound (bid, day 1-7); assay type: functional
[37] = tested on: Mus musculus; experiment: (§3) Post inoculation life span in L1210 leukemic mice treated with 480 mg/kg of compound (qd, day 1); assay type: functional
[38] = tested on: Mus musculus; experiment: Post inoculation life span in L1210 leukemic mice treated with 480 mg/kg of compound (qd, day 1,4,7); assay type: functional
[39] = tested on: Mus musculus; experiment: (§4) Post inoculation life span in L1210 leukemic mice treated with 480 mg/kg of compound (qd, day 1-7); assay type: functional
[40] = tested on: Mus musculus; experiment: Post inoculation life span in L1210 leukemic mice treated with 480 mg/kg of compound (tid, day 1); assay type: functional
[41] = tested on: Mus musculus; experiment: Post inoculation life span in L1210 leukemic mice treated with 480 mg/kg of compound (tid, day 1,3,5,7); assay type: functional
[42] = tested on: Mus musculus; experiment: Post inoculation life span in L1210 leukemic mice treated with 480 mg/kg of compound (tid, day 1-7); assay type: functional
[43] = tested on: Mus musculus; experiment: as §3; assay type: functional; remark: listed apart in the source
[44] = tested on: Mus musculus; experiment: Post inoculation life span in L1210 leukemic mice treated with 480 mg/kg of compound (qd, day 1,3,5,7); assay type: functional
[45] = tested on: Mus musculus; experiment: as §4; assay type: functional; remark: listed apart in the source
[46] = tested on: Mus musculus; experiment: Post inoculation life span in L1210 leukemic mice treated with 480 mg/kg of compound (qid, day 1); assay type: functional
[47] = tested on: Mus musculus; experiment: Compound was evaluated for leukemia related splenomegaly in DBA2 mice spleen weight was determined ~ 24 hour after the last treatment at schedule of administration at qd, day 1,3, 5, 7, 9, 11 at a dose 288 mg/kg; assay type: functional
[48] = tested on: Mus musculus; experiment: Compound was evaluated for leukemia related splenomegaly in DBA2 mice spleen weight was determined ~ 24 hour after the last treatment at schedule of administration = qd, day 1,3, 5, 7, 9, 11 at a dose 400 mg/kg; assay type: functional
[49] = tested on: Mus musculus; experiment: Compound was evaluated for leukemia related splenomegaly in DBA2 mice spleen weight was determined ~ 24 hour after the last treatment at schedule of administration at bid, day 1,3, 5, 7, 9, 11 at a dose 288 mg/kg; assay type: functional
[50] = tested on: Mus musculus; experiment: Compound was evaluated for leukemia related splenomegaly in DBA2 mice spleen weight was determined ~ 24 hour after the last treatment at schedule of administration at bid, day 1,3, 5, 7, 9, 11 at a dose 400 mg/kg; Toxic; assay type: ADME, organism-based; design: dose 400 mg/kg; settings: in vivo

For `CCOC(=N)c1ncn(C2O[C@H](CO)[C@@H](O)[C@H]2O)n1` (stereo not given in full), the Control [1] was 1.3%, the Control [2] was “Toxic” and the Control [3] was 1.7%. The Control [4] was 27%, the Control [5] was “Toxic” and the Control [6] was 1.1%. For the same molecule, the Control [7] was “Toxic”, the Control [8] was 0.4% and the Control [9] was 1.7%. The Control [10] was “Toxic”, the Spleen weight [11] was “Toxic” and the T/C [12] was 149%. For the same molecule, the T/C [13] was 92%, the T/C [14] was 144% and the T/C [15] was 114%. It also gave a T/C [16] of 48%, a T/C [17] of 149% and a T/C [18] of 134%. For the same molecule, the T/C [19] was 159% and 144%, the T/C [20] was 70% and the Spleen weight [21] was 1257 mg. The Spleen weight [22] was “Toxic”.

In the case of `COC(=N)c1ncn([C@@H]2O[C@H](CO)[C@@H](O)[C@H]2O)n1`, the Control [23] is reported as 12%, the Control [24] is reported as “Toxic” and the Control [25] is reported as 30% and 21%. The Control [26] was 46%, the Control [27] was 73% and the Control [28] was “Toxic”. The Control [29] was 0.6%, the Control [30] was “Toxic” and the Control [31] was 9%. For the same molecule, the Control [32] was 32%, the Control [33] was “Toxic” and the T/C [34] was 125%. For the same molecule, the T/C [35] was 162%, the T/C [36] was 101% and the T/C [37] was 113% and 116%. For the same molecule, the T/C [38] was 119%, the T/C [39] was 162% and 97% and the T/C [40] was 153%. The T/C [41] was 76%, the T/C [42] was 61% and the T/C [43] was 114%. It also gave a T/C [44] of 121%, a T/C [45] of 142% and a T/C [46] of 60%. For the same molecule, the Spleen weight [47] was 599 mg, the Spleen weight [48] was 216 mg and the Spleen weight [49] was 150 mg. The Spleen weight [50] was “Toxic”.
